# How the values were obtained:
# [1] = PK profile, food intake and body weight after a single subcutaneous dose in normal HSD rats; assay type: in vivo, rat; conditions: 25 nmol/kg subcutaneous
# Procedure: Blood was collected via tail bleed at t=1 hour, 3 hours, 6 hours, 24 hours, 48 hours, 72 hours, 96 hours and 168 hours from fed HSD male rats. Food and body weights were measured daily. […] Points represent mean±sd.
# Pharmacokinetic profile and biological activity of an exemplary engineered polypeptide subcutaneously dosed in normal Harlan Sprague-Dawley (HSD) rats is presented. […] Blood was collected via tail bleed at t=1 hour, 3 hours, 6 hours, 24 hours, 48 hours, 72 hours, 96 hours and 168 hours from fed HSD male rats. Food and body weights were measured daily. […] Points represent mean±sd. In the figures, vehicle is solid square, Cmpd 2-11 is open inverted triangle and Cmpd 2-9 is closed triangle. The plasma maximal concentration in FIG. 18C is equivalent to about 25,000 picomolar.
# [2] = Stability in human plasma; assay type: in vitro ADME; conditions: 10 μg/ml in human plasma, 37 degrees C, 5 hours; normalized to a standard (100%)
# db/db mice = experiment: Oral (gavage) delivery, blood glucose lowering in diabetic db/db mice; assay type: in vivo, mouse; conditions: 240 nmol/kg peroral by gavage in PBS/propylene glycol (50:50); 2-hour fasted db/db mice; to 120 minutes
# diabetic ob/ob mice = experiment: Chronic (28 days) treatment of diabetic ob/ob mice: glucose, HbA1c, body weight; assay type: in vivo, mouse
# Procedure: The time course of the effect of the test compound on body weight, glucose lowering and HbA1c lowering in ob/ob mice was investigated post dose, with values at 4 weeks presented in FIGS. 11A, 11B, 11C and 11D. […] Points represent mean±s.d. (standard deviation). Each test compound was injected IP on day=0 immediately following baseline sample collection in non-fasted male ob/ob mice. […] Unless indicated otherwise, blood glucose measures described herein employed a OneTouch® Ultra® device (LifeScan, Inc. Miliptas, Calif.).
# Sprague Dawley rats = experiment: IVGTT DOA in HSD fed anesthetized rats 5 days post dose; assay type: in vivo, rat; conditions: 240 nmol/kg
# Procedure: In vivo assays for activity and duration of action and pharmacokinetics can be done using known methods. For example, duration can be performed using an oral glucose tolerance test (OGTT) in which the drug is administered to the subject at a desired time point before the glucose is administered orally (to measure drug duration of action; OGTT DOA) and glucose blood levels are measured (e.g. readily done in mice). Activity and duration can also be measured using an intravenous glucose tolerance test (IVGTT) in which the drug is administered to the subject at a desired time point before the glucose is administered IV (IVGTT DOA) and blood glucose levels are measured (e.g. can readily be done in rats). Preferred engineered compounds have a desired effect on blood glucose of at least 24 hours duration after a single dose of drug, preferably at least 3 days, at least 4 days, at least 5 days, at least 6 days, and at least 1 week after the single dose of drug is given.
# The time course of plasma glucose after IVGTT is depicted in FIG. 4A. Integrated (AUC0-60) glucose levels are depicted in the histogram of FIG. 4B. The time course of the change in insulin levels in the test subjects was depicted in FIG. 4C. The integrated insulin levels (AUC0-30) are depicted in FIG. 4D. The time course of body weight change (% change from baseline) is depicted for the test subjects in FIG. 4E. […]
# ob/ob mice = experiment: Body weight, glucose and HbA1c in ob/ob mice after a single sc dose; assay type: in vivo, mouse; conditions: single sc injection, non-fasted male ob/ob mice; Cmpd 15 at 250 nmol/kg
# Excerpt: Changes in glucose (% pre-treatment) and in HbA1c (% pre-treatment) are depicted in FIGS. 5B-5C. Points represent mean±s.d. (standard deviation). […] Unless indicated otherwise, blood glucose measures described herein employed a OneTouch® Ultra® device (LifeScan, Inc. Miliptas, Calif.).
# C57BL6 female mice = experiment: Kidney vacuolization (cytoplasmic vacuolation of renal cortical tubular epithelial cells); assay type: in vivo, mouse; conditions: Example 14; sc injection on days 0-6, kidneys on day 7
# Procedure: (§1) With some drugs, such as some pegylated proteins, undesirable vacuoles can form in cytoplasm of epithelial cells lining the proximal convoluted tubules, which is an undesirable toxicity measure. […] C57BL6 female mice (n=2 cages, 3 mice/cage) were weighed daily 3 hours prior to lights out Immediately after weighing, on days 0-6 mice were injected subcutaneously with test compound. Mice were sacrificed on day 7 and kidneys submitted for histopathology. […] A positive control compound known to cause vacuole formation was scored as 3. The ABD polypeptide itself scored 0.
# as §1, with “3.” for “3. The ABD polypeptide itself scored 0.”
# NIH/Swiss mice = experiment: OGTT DOA (oral glucose tolerance test for duration of action) in NIH/Swiss mice; assay type: in vivo, mouse; conditions: Table 6; 25 nmol/kg IP at t=−1 day; blood glucose at 30 min after glucose gavage ([…]); 4 hr fasted NIH/Swiss female mice
# [3] = 25 and 250 nmol/kg IP twice each week for 28 days
sequence,measurement,setting,value
HGEGTFTSDLSKQLEEEAVRLFIEWLKQGGPSKEIISTGGGGSASLAEAKVLANRELDKYGVSDFYKRLINKAKTVEGVEALKLHILAALP [Cmpd 15],apparent half-life,[1],54 h
same,Percent Stable in Human Plasma,[2],96.0%
same,"activity after oral dosing (blood glucose, in words)",db/db mice,active when dosed orally
same,glycemic and body weight loss effects compared to the maximally efficacious dose of exendin-4 (in words),"diabetic ob/ob mice; 25 nmol/kg biw IP vs exendin-4 ~[…] CSI, 28 days",exceeded
same,effect compared to the maximally efficacious dose of exendin-4 (in words),"diabetic ob/ob mice; 250 nmol/kg biw IP, 28 days",significantly greater than the maximally efficacious dose of exendin-4
same,HbA1c lowering (in words),diabetic ob/ob mice; [3],significant HbA1c lowering
same,body weight loss (in words),diabetic ob/ob mice; [3],significant body weight loss
same,HbA1c lowering and body weight loss compared to liraglutide (in words),"diabetic ob/ob mice; equimolar dosing to liraglutide, data not shown",more effective than liraglutide
same,glucose lowering upon chronic exposure compared to liraglutide (in words),"diabetic ob/ob mice; equimolar dosing, twice weekly (BIW), ob/ob mice",superior to liraglutide
same,time after administration at which drug activity is present (IVGTT DOA),Sprague Dawley rats,at least 5 days
same,body weight in ob/ob mice (in words),ob/ob mice,significant body weight loss
same,Severity score for cytoplasmic vacuolation of renal cortical tubular epithelial cells,C57BL6 female mice,0
same,% Glucose Lowering Compared to Vehicle,NIH/Swiss mice,−21%

# Source: patent US20150133373A1, “TRANSMUCOSAL DELIVERY OF ENGINEERED POLYPEPTIDES” (priority 2012, published 2015)
